# ChEMBL document CHEMBL3351409, “Repurposing cryptosporidium inosine 5'-monophosphate dehydrogenase inhibitors as potential antibacterial agents” (ACS Med Chem Lett, 2014)
# The source made the active and inactive calls. The calls are words filed in the database; no cut-off is given here.
# Legend:
# [1] = target: T1, Inosine-5'-monophosphate dehydrogenase (Bacillus anthracis, UniProt A0A6L8P2U9); assay: Non-competitive inhibition of Bacillus anthracis IMPDH preincubated for 10 mins before IMP substrate addition by spectrophotometry
# [2] = target: T2, Inosine-5'-monophosphate dehydrogenase (Cryptosporidium parvum, UniProt Q8T6T2); assay: Un-competitive inhibition of Cryptosporidium IMPDH preincubated for 10 mins before IMP substrate addition by spectrophotometry
# T2 sequence (Q8T6T2 whole entry): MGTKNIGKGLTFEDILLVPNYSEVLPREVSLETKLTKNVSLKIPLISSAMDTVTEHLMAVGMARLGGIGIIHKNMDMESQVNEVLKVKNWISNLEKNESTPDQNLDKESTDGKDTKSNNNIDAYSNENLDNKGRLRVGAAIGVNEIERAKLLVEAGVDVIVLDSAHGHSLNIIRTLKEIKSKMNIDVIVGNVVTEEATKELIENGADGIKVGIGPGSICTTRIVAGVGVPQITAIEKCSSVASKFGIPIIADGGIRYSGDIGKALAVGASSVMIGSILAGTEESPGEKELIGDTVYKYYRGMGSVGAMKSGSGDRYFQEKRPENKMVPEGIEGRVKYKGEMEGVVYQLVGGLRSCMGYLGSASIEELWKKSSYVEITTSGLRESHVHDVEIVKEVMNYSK
# [3] = Antibacterial activity against Bacillus anthracis Sterne 7702; type: functional, Bacillus anthracis str. Sterne
# [4] = Antibacterial activity against Bacillus anthracis Sterne 7702 in presence of 0.01 % guanine; type: functional, Bacillus anthracis str. Sterne
# Staphylococcus aureus [5] = assay: Antibacterial activity against Staphylococcus aureus NCTC 8325; type: functional
# Staphylococcus aureus [6] = assay: Antibacterial activity against Staphylococcus aureus NCTC 8325 in presence of 0.01 % guanine; type: functional
# Staphylococcus aureus [7] = assay: Antibacterial activity against Staphylococcus aureus ATCC 13709 Smith; type: functional
# Staphylococcus aureus [8] = assay: Antibacterial activity against Staphylococcus aureus ATCC 13709 Smith in presence of 0.01 % guanine; type: functional
# Listeria monocytogenes [9] = assay: Antibacterial activity against Listeria monocytogenes 10403S; type: functional
# Listeria monocytogenes [10] = assay: Antibacterial activity against Listeria monocytogenes 10403S in presence of 0.01 % guanine; type: functional
# [11] = tested on: Bacillus anthracis str. Sterne; assay: Ratio of MIC for Bacillus anthracis Sterne 7702 in presence of 0.01 % guanine to MIC for Bacillus anthracis Sterne 7702; type: functional
# Staphylococcus aureus [12] = assay: Ratio of MIC for Staphylococcus aureus NCTC 8325 in presence of 0.01 % guanine to MIC for Staphylococcus aureus NCTC 8325; type: functional
# Staphylococcus aureus [13] = assay: Ratio of MIC for Staphylococcus aureus ATCC 13709 Smith in presence of 0.01 % guanine to MIC for Staphylococcus aureus ATCC 13709 Smith; type: functional
# Listeria monocytogenes [14] = assay: Ratio of MIC for Listeria monocytogenes 10403S in presence of 0.01 % guanine to MIC for Listeria monocytogenes 10403S; type: functional
# [15] = target: T2, Inosine-5'-monophosphate dehydrogenase; assay: Competitive inhibition of Cryptosporidium IMPDH preincubated for 10 mins before NAD+ substrate addition by spectrophotometry
# [16] = target: T1, Inosine-5'-monophosphate dehydrogenase; assay: Non-competitive inhibition of Bacillus anthracis IMPDH preincubated for 10 mins before NAD+ substrate addition by spectrophotometry
# [17] = target: T1, Inosine-5'-monophosphate dehydrogenase; assay: Inhibition of Bacillus anthracis IMPDH preincubated for 10 mins before substrate addition by spectrophotometry
# [18] = Selectivity ratio of IC50 for Bacillus anthracis IMPDH to IC50 for Cryptosporidium IMPDH
# [19] = target: T2, Inosine-5'-monophosphate dehydrogenase; assay: Inhibition of Cryptosporidium IMPDH preincubated for 10 mins before substrate addition by spectrophotometry
# [20] = target: T2, Inosine-5'-monophosphate dehydrogenase; assay: Non-competitive inhibition of Cryptosporidium IMPDH preincubated for 10 mins before NAD+ substrate addition by spectrophotometry
# T1 sequence (A0A6L8P2U9 whole entry): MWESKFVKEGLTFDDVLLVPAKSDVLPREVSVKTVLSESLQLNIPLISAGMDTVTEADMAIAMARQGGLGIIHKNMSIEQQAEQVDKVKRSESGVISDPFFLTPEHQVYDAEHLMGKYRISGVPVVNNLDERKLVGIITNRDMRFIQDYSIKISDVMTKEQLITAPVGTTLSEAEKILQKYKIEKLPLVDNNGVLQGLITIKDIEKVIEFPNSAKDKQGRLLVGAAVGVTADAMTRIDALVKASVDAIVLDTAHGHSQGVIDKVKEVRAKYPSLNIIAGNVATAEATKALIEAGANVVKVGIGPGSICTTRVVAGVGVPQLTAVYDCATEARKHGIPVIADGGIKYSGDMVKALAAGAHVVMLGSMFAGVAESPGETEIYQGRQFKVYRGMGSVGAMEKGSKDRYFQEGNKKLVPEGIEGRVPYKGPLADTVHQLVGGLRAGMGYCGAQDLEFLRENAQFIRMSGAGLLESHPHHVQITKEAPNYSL
compound,measurement,setting,value
C[C@@H](Oc1cc[n+]([O-])c2ccccc12)c1cn(-c2ccc(Cl)cc2)nn1,Ki,[1],38 nM
same,Ki,[2],5 nM
same,MIC,[3],1 µM
same,MIC,[4],8 µM
same,MIC,Staphylococcus aureus [5],1.8 µM
same,MIC,Staphylococcus aureus [6],> 30 µM
same,MIC,Staphylococcus aureus [7],2 µM
same,MIC,Staphylococcus aureus [8],16 µM
same,MIC,Listeria monocytogenes [9],7.5 µM
same,MIC,Listeria monocytogenes [10],inactive
same,Ratio,[11],8
same,Ratio,Staphylococcus aureus [12],8
same,Ratio,Staphylococcus aureus [13],8
same,Ratio,Listeria monocytogenes [14],8
same,Ki,[15],5 nM
same,Ki,[16],58 nM
C/C(=N\O)c1cccc(C(C)(C)NC(=O)Nc2ccc(Cl)c(C(F)(F)F)c2)c1,IC50,[17],2 nM
same,Ratio IC50,[18],< 0.5
CC(C)C(Oc1cccc2ccccc12)C(=O)Nc1ccc(Cl)cc1 (centres undefined),IC50,[17],120 nM
same,IC50,[19],700 nM
same,Ratio IC50,[18],< 0.5
CC(Oc1ccc(-c2ccccc2)cc1)C(=O)Nc1ccc(Cl)cc1 (centres undefined),IC50,[19],1100 nM
same,Ratio IC50,[18],< 0.5
O=C(Nc1ccc(Cl)cc1)C(Oc1cccc2ccccc12)C1CC1 (centres undefined),IC50,[19],> 5000 nM
same,Ratio IC50,[18],< 0.5
C[C@H](C(=O)Nc1ccc2oc(-c3ccncc3)nc2c1)c1ccccc1,Ratio IC50,[18],< 0.5
C/C(=N\O)c1cccc(C(C)(C)NC(=O)Nc2ccc(Cl)c(C(=O)N3CCN(C)CC3)c2)c1,IC50,[19],330 nM
same,Ratio IC50,[18],< 0.5
C/C(=N\O)c1cccc(C(C)(C)NC(=O)Nc2ccc(Cl)c(C(N)=O)c2)c1,Ki,[1],1.5 nM
same,Ki,[2],2 nM
same,Ki,[20],6 nM
same,Ki,[16],8 nM
C[C@H](Oc1cccc(Cl)c1Cl)C(=O)Nc1cccc(NC(=O)c2ccncc2)c1,IC50,[17],300 nM
same,Ratio IC50,[18],< 0.5
C[C@H](Oc1cccc2ccccc12)C(=O)Nc1ccc2oc(-c3ccncc3)nc2c1,Ki,[1],24 nM
same,Ki,[2],64 nM
same,Ki,[15],13 nM
same,Ki,[16],17 nM
Cn1nc(CC(=O)Nc2ccc3oc4c(c3c2)CCCC4)c2ccccc2c1=O,Ki,[1],12 nM
same,Ki,[2],5 nM
same,Ki,[20],49 nM
same,Ki,[16],500 nM
CC(=O)c1cccc(CNC(=O)Nc2ccc(Cl)cc2)c1,IC50,[17],1200 nM
same,IC50,[19],> 5000 nM
same,Ratio IC50,[18],< 0.5
CC(Oc1cccc([N+](=O)[O-])c1Cl)C(=O)Nc1ccc2oc(-c3ccncc3)nc2c1 (centres undefined),IC50,[17],14 nM
same,IC50,[19],49 nM
same,Ratio IC50,[18],< 0.5
C/C(=N\O)c1cccc(C(C)(C)NC(=O)Nc2ccc(Br)cc2)c1,IC50,[19],9 nM
same,Ratio IC50,[18],< 0.5
same,Ki,[1],48 nM
same,Ki,[2],12 nM
same,Ki,[20],15 nM
same,Ki,[16],2.3 nM
O=C(COc1cccc2ccccc12)Nc1ccc(Br)cc1,IC50,[17],760 nM
same,IC50,[19],> 5000 nM
same,Ratio IC50,[18],< 0.5
O=C(Cn1c(-c2ccccn2)nc2ccccc21)Nc1ccc2ccccc2c1,Ki,[1],820 nM
same,Ki,[2],13 nM
same,Ki,[20],14 nM
same,Ki,[16],44 nM
C[C@H](Oc1cccc(Cl)c1Cl)C(=O)Nc1ccc2oc(-c3ccncc3)nc2c1,IC50,[17],10 nM
same,Ratio IC50,[18],< 0.5
CCN(CC)C(=O)c1ccc(NC(=O)NC(C)(C)c2cccc(/C(C)=N/O)c2)cc1Cl,MIC,[3],0.5 µM
same,MIC,[4],> 30 µM
same,MIC,Staphylococcus aureus [5],0.9 µM
same,MIC,Staphylococcus aureus [6],> 30 µM
same,MIC,Staphylococcus aureus [7],4 µM
same,MIC,Staphylococcus aureus [8],> 30 µM
same,MIC,Listeria monocytogenes [9],15 µM
same,Ratio,[11],8
same,Ratio,Staphylococcus aureus [12],8
same,Ratio,Staphylococcus aureus [13],8
same,Ratio,Listeria monocytogenes [14],8
C/C(=N\O)c1cccc(C(C)(C)NC(=O)Nc2ccc(Cl)c(Cl)c2)c1,IC50,[17],95 nM
same,IC50,[19],190 nM
same,Ratio IC50,[18],< 0.5
C[C@H](Nc1cccc(Cl)c1Cl)C(=O)Nc1ccc2oc(-c3ccncc3)nc2c1,IC50,[17],5 nM
same,Ratio IC50,[18],< 0.5
C/C(=N\O)c1cccc(C(C)(C)NC(=O)Nc2ccc(Cl)c(C(=O)N3CCOCC3)c2)c1,MIC,Staphylococcus aureus [5],3.8 µM
same,MIC,Staphylococcus aureus [6],7.5 µM
same,MIC,Staphylococcus aureus [7],2 µM
same,MIC,Staphylococcus aureus [8],> 30 µM
same,MIC,Listeria monocytogenes [9],> 30 µM
same,Ratio,Staphylococcus aureus [12],8
same,Ratio,Staphylococcus aureus [13],8
same,Ratio,Listeria monocytogenes [14],8
C=C(C)c1cccc(C(C)(C)NC(=O)Nc2ccc(Cl)c(C(F)(F)F)c2)c1,Ratio IC50,[18],< 0.5
O=C(Nc1ccc(Cl)cc1)C(Oc1cccc2ccccc12)c1ccccc1 (centres undefined),IC50,[17],2400 nM
same,IC50,[19],> 5000 nM
same,Ratio IC50,[18],< 0.5
C[C@@H](Oc1cccc2cnccc12)c1cn(-c2ccc(Cl)cc2)nn1,MIC,[3],2 µM
same,MIC,[4],> 30 µM
same,MIC,Staphylococcus aureus [5],7.5 µM
same,MIC,Staphylococcus aureus [6],> 30 µM
same,MIC,Staphylococcus aureus [7],8 µM
same,MIC,Staphylococcus aureus [8],> 30 µM
same,MIC,Listeria monocytogenes [9],3.8 µM
same,Ratio,[11],8
same,Ratio,Staphylococcus aureus [12],8
same,Ratio,Staphylococcus aureus [13],8
same,Ratio,Listeria monocytogenes [14],8
C[C@H](Oc1cccc(Cl)c1Cl)C(=O)Nc1ccc2nc(-c3ccncc3)oc2c1,IC50,[17],10 nM
same,Ratio IC50,[18],< 0.5
